Experimental data reported in ChEMBL document CHEMBL1153703, “Cell-based optimization of novel benzamides as potential antimalarial leads” (Bioorg Med Chem Lett, 2009).

Tests used:
[1] = tested on: Mus musculus; assay: AUC (0 to 5 hrs) in BALB/c mouse at 20 mg/kg; assay type: ADME, organism-based, Plasma; design: time < 4 hr, dose 20 mg/kg; conditions: in vivo, 4 h
[2] = tested on: Mus musculus; assay: Dose normalised AUC (0 to 5 hrs) in BALB/c mouse at 20 mg/kg, po; assay type: ADME, organism-based; design: time < 4 hr, dose 20 mg/kg, route oral; conditions: in vivo, 4 h
[3] = Selectivity index, TC50 for human HuH7 cells to EC50 for chloroquine-sensitive Plasmodium falciparum 3D7; assay type: toxicity, cell-based, Huh-7; conditions: read-out: Selectivity Index
[4] = Selectivity index, TC50 for human HeLa cells to EC50 for chloroquine-sensitive Plasmodium falciparum 3D7; assay type: toxicity, cell-based; conditions: read-out: Selectivity Index
[5] = Selectivity index, TC50 for mice (Mus musculus) BAF3 cells to EC50 for chloroquine-sensitive Plasmodium falciparum 3D7; assay type: toxicity, cell-based; conditions: read-out: Selectivity Index
[6] = Selectivity index, TC50 for CHO cells to EC50 for chloroquine-sensitive Plasmodium falciparum 3D7; assay type: toxicity, cell-based; conditions: hamster, read-out: Selectivity Index
[7] = Cytotoxicity against mouse BAF3 cells; assay type: cell-based; conditions: read-out: TC50 (the source's name)
[8] = Cytotoxicity against human 293T cells; assay type: cell-based, HEK-293T; conditions: read-out: TC50 (the source's name)
[9] = Cytotoxicity against CHO cells; assay type: cell-based, Cricetulus griseus; conditions: chinese hamster, read-out: TC50 (the source's name)
[10] = Cytotoxicity against human HeLa cells; assay type: cell-based; conditions: read-out: TC50 (the source's name)
[11] = Cytotoxicity against human HuH7 cells; assay type: cell-based, Huh-7; conditions: read-out: TC50 (the source's name)
[12] = Selectivity index, TC50 for human Hep2 cells to EC50 for chloroquine-sensitive Plasmodium falciparum 3D7; assay type: toxicity, cell-based, HEp-2; conditions: read-out: Selectivity Index
[13] = Cytotoxicity against human Hep2 cells; assay type: cell-based, HEp-2; conditions: read-out: TC50 (the source's name)

O=C(Nc1cccc(Cl)c1)c1cc(N2CCC(N3CCCCC3)CC2)cc(C(F)(F)F)c1
AUC [1]: 4.37 µM·h | AUC [2]: 6.1 µg·min/mL

O=C(Nc1cc(Cl)cc(Cl)c1)c1cc(N2CCC(N3CCCC3)CC2)cc(C(F)(F)F)c1
AUC [1]: 4.81 µM·h | AUC [2]: 7.01 µg·min/mL

O=C(Nc1cccc(Cl)c1)c1cc(N2CCC(N3CCCC3)CC2)cc(C(F)(F)F)c1
AUC [1]: 3.92 µM·h | AUC [2]: 5.31 µg·min/mL

O=C(Nc1cccc(C(F)(F)F)c1)c1cc(N2CCc3ccccc3C2)cc(C(F)(F)F)c1
AUC [1]: 1.67 µM·h | AUC [2]: 2.33 µg·min/mL

CC1CCN(C2CCN(c3cc(C(=O)Nc4cccc(Cl)c4)cc(C(F)(F)F)c3)CC2)CC1
selectivity ratio [3]: > 20 | selectivity ratio [4]: > 20 | selectivity ratio [5]: > 20 | AUC [1]: 7.93 µM·h | selectivity ratio [6]: > 20 | CC50 [7]: > 8 µM | AUC [2]: 11.42 µg·min/mL | CC50 [8]: > 8 µM | CC50 [9]: > 8 µM | CC50 [10]: > 8 µM | CC50 [11]: > 8 µM | selectivity ratio [12]: > 20 | CC50 [13]: > 8 µM

O=C(Nc1cc(N2CCC(N3CCCC3)CC2)cc(C(F)(F)F)c1)c1cccc(C(F)(F)F)c1
AUC [1]: 4.77 µM·h | AUC [2]: 6.94 µg·min/mL
